Source: publication PMC7968666, “The pharmacokinetics and drug-drug interactions of ivermectin in Aedes aegypti mosquitoes” (PLoS Pathogens, 2021)
Read-outs that look alike come from different tables or passages of the source.

Experiments:
Aedes aegypti mosquitoes [1] = test: Drug effect on mosquito fecundity (eggs laid after 96 h); type: in vivo
Experimental: The mixtures were rotated at room temperature for 30 min to ensure a uniform drug distribution (Rotator Genie, Scientific Industries, Bohemia, USA). […] Twelve hours later, the tap water was also removed to starve the mosquitoes. […] The mosquitoes were then feeding from blood through the netting and the Parafilm membrane. […] The photoperiod of the climate chamber and the insectary were synchronised. […] The engorged mosquitoes were either directly frozen at -20°C or returned to the climate chamber for certain time periods to assess the PK. […] Blood feeding was done as described above. […] In contrast to the PK experiments, the mosquitoes had unlimited access to water because a moistened oviposition substrate was inserted into the paper cup. Fecundity was defined as the total number of eggs laid after 96 h. […] The filter paper served as the oviposition substrate. The cotton wool was soaked with fresh water and covered by a new filter paper after 48, 72, and 96 h post-treatment. After the assay, the eggs were left to mature for 24 h in the insectary. […] R Foundation for Statistical Computing, http://www.R-project.org, Vienna, Austria). Normality was assessed using the Shapiro-Wilk test. For normally distributed data (mortality, fecundity), group differences were assessed with one-way ANOVA testing, and, where applicable, followed up with Tukey's test. Group differences in fertility (not normally distributed) were evaluated with Kruskal-Wallis one-way analysis of variance, and Wilcoxon rank sum testing as post-hoc.

Aedes aegypti mosquitoes [2] = test: Drug effect on mosquito fertility (percentage of eggs hatched); type: in vivo
Experimental: The mixtures were rotated at room temperature for 30 min to ensure a uniform drug distribution (Rotator Genie, Scientific Industries, Bohemia, USA). […] Twelve hours later, the tap water was also removed to starve the mosquitoes. […] The mosquitoes were then feeding from blood through the netting and the Parafilm membrane. […] The photoperiod of the climate chamber and the insectary were synchronised. […] The engorged mosquitoes were either directly frozen at -20°C or returned to the climate chamber for certain time periods to assess the PK. […] Blood feeding was done as described above. […] In contrast to the PK experiments, the mosquitoes had unlimited access to water because a moistened oviposition substrate was inserted into the paper cup. […] Any hatched larva was counted and transferred to a rearing tray with a plastic pipette. The fertility was calculated as the percentage of eggs hatched. […] R Foundation for Statistical Computing, http://www.R-project.org, Vienna, Austria). Normality was assessed using the Shapiro-Wilk test. For normally distributed data (mortality, fecundity), group differences were assessed with one-way ANOVA testing, and, where applicable, followed up with Tukey's test. Group differences in fertility (not normally distributed) were evaluated with Kruskal-Wallis one-way analysis of variance, and Wilcoxon rank sum testing as post-hoc.

Aedes aegypti mosquitoes [3] = conditions: IVM 0.1, KCZ 5, RIF 10, RTV 10, PBO 10 μg/ml in blood; for Mosquito survival (%): 50 mosquitoes
Anopheles mosquitoes = conditions: cited from earlier work
Ae. aegypti = test system: Ae. aegypti; parameters: method as in PMID 20540931; conditions: single oral dose of 150 μg/kg; cited from earlier work
[4] = 4 days, IVM 0.1, KCZ 5, RIF 10, RTV 10, PBO 10 μg/ml in blood, 50 mosquitoes
[5] = 100 eggs laid 48-96 h post-treatment, IVM 0.1, KCZ 5, RIF 10, RTV 10, PBO 10 μg/ml in blood

Compound: CCC(C)C1OC2(CCC1C)CC1CC(CC=C(C)C(OC3CC(OC)C(OC4CC(OC)C(O)C(C)O4)C(C)O3)C(C)C=CC=C3COC4C(O)C(C)=CC(C(=O)O1)C34O)O2 (stereo not shown) [ivermectin]
- Mosquito fecundity, Batch 1, mg eggs (4 days) (Aedes aegypti mosquitoes [1]; [4]): 18.22 mg eggs
- Mosquito fecundity, Batch 2, mg eggs (4 days) (Aedes aegypti mosquitoes [1]; [4]): 8.65 mg eggs
- Mosquito fecundity, Batch 3, mg eggs (4 days) (Aedes aegypti mosquitoes [1]; [4]): 16.69 mg eggs
- Effect on number of mosquito eggs (fecundity) compared to blank blood (Aedes aegypti mosquitoes [1]; four days, IVM 0.1, RTV 10, PBO 10 μg/ml in blood): reduced the number of mosquito eggs
- Mosquito fertility, Batch 1, hatching rate (Aedes aegypti mosquitoes [2]; [5]): 1%
- Mosquito fertility, Batch 2, hatching rate (Aedes aegypti mosquitoes [2]; [5]): 0%
- Mosquito fertility, Batch 3, hatching rate (Aedes aegypti mosquitoes [2]; [5]): 1%
- Effect on fertility of mosquito eggs (Aedes aegypti mosquitoes [2]; ivermectin 0.1 μg/ml in blood): sterilised almost all mosquito eggs
- Mosquito survival (%) (Aedes aegypti mosquitoes [3]; 0 days post feeding): 100%
- Mosquito survival (%) (Aedes aegypti mosquitoes [3]; 1 day post feeding): 100%
- four-day mosquito mortality (Aedes aegypti mosquitoes [3]; four days, 3 batches of 50): 17%
- Lethal concentration for Anopheles mosquitoes (Anopheles mosquitoes): low nanomolar range
- Host blood concentration relative to LD50 against Ae. aegypti (Ae. aegypti): ≤ 10 % of the LD50
